In patent US20200071699A1, “TREATMENT OF ALZHEIMERS DISEASE WITH MICRO RNA AND GHRELIN” (priority 2018, published 2020):
Ends that are not written are not given here. * marks the point of attachment. Octanoyl = CCCCCCCC(=O)*

Key:
miR-126 = test: qPCR of capillary miR-126 after ghrelin administration; format: in vivo, mouse; details: 3×Tg-AD mice aged 9 months; ghrelin s.c. vs saline; P<0.05
Description: (§1) Triple transgenic mice, 3×Tg-AD, containing three mutations ([…], APP Swedish and MAPT P301L), are widely used as an animal model of FAD. Age and gender-matched B6129SF2/J strain were used as the wild type (WT) control. Mice were obtained from the Jackson Laboratory and bred in our research institute's animal facility. Mice were housed in plastic cages on a 12 hr/12 hr light/dark cycle with ad libitum access to water and standard rodent diet. Animal usage was approved by California Medical Innovations Institute (CalMI2) Institutional Animal Care and Use Committee (IACUC). The genotyping was conducted in CalMI2 animal facilities at the age of 21 days by tail DNA extraction according to our previous protocol and the online information supplied by the vendor. […]
(§2) Total RNA was purified with Trizol reagent (Invitrogen), according to the manufacturer's instructions. To quantify miR-126-3p (MIMAT0000138), miR-145-5p (MIMAT0000157), miR-195-5p (MIMAT0000225), miR-21-5p (MIMAT0000530) and miR-29b-3p (MIMAT0000127), reverse transcription and quantitative PCR (qPCR) were performed using the TaqMan@ microRNA assay kit (Applied Biosystems) as previously described. […] Relative gene expression levels between wild type and 3×Tg-AD mice were determined using the comparative Ct (2^−ΔΔCt) method after normalizing to U6.

Aβ plaque = details: 5×FAD mice with ghrelin treatment; cited from earlier work
[1] = tested on: pericytes coverage of capillaries; test: Pericyte coverage of isolated capillaries after ghrelin administration; format: in vivo, mouse; details: 3×Tg-AD mice aged 9 months; ghrelin s.c. per day every 2 days for 2 weeks vs vehicle (saline); P<0.001
Description: as §1
(§3) The isolated microvessel fragments were smeared onto Superfrost Plus pre-cleaned glass microscope slides and fixed using ICC Fixation Buffer (BD Pharmingen) for 15 min at room temperature (RT). […] For coverage analysis, the percentage of PDGFRβ-positive pericyte area covering lectin-positive capillary area was quantified using Image J Area analysis as described previously. For the expression analysis of Aβ transporters, the area of LRP1, RAGE and Mdr1-occupied endothelium were measured as an area percentage normalized by the total area of lectin-positive capillaries using Image J Area measurement tool. […]

Aβ oligomers = Aβ oligomers (ELISA, immunoblot) in microvessel-depleted cortex and hippocampus after ghrelin; format: in vivo, mouse
Description: as §1, with “vendor. Ten mice per strain (3×Tg-AD, B6129SF2/J) at the ages of 6, 9, and 12 months were used in this study.” for “vendor.”
The method has been described previously. […] After centrifugation at 12,000 rpm for 20 min, protein content was determined by Bradford assay. […]
Human Aβ oligomers were analyzed in the microvessel-depleted cortex and hippocampal supernatant by enzyme-linked immunosorbent assay (ELISA; IBL International, Germany) according to manufacturer's instructions. […]

RAGE = test: Expression of Aβ transporters in isolated capillaries after ghrelin (immunofluorescence); format: in vivo, mouse; details: 3×Tg-AD mice aged 9 months; ghrelin vs saline-injected group
Description: as §1, §3

miR-145 = test: qPCR of capillary miR-145 after ghrelin administration; format: in vivo, mouse; details: 3×Tg-AD mice aged 9 months; ghrelin s.c. vs saline; P<0.05
Description: as §1, §2

[2] = tested on: 5 capillary miRNAs (miR-126, miR-145, miR-195, miR-21, miR-29b); test: qPCR of 5 capillary miRNAs after ghrelin administration; format: in vivo, mouse; details: 9 months 3×Tg mice; ghrelin 600 μg/kg per day, every 2 days for 2 weeks S.C. vs saline
Description: as §1
as §2, with “U6. […]” for “U6.”

## n-octanoylated ghrelin (GSS(Octanoyl)FLSPEHQRVQQRKESKKPPAKLQPR; UniProt Q9UBU3 24-51, looked up) [neuropeptide "hunger hormone" generated from ghrelinergic cells of the gastrointestinal tract; n-octanoylated ghrelin from AnaSpec]
miR-126
  expression level of capillary miR126 from hippocampus and cerebral cortex: significant increase
Aβ plaque
  Aβ plaque burden: no significant diminishment
[1]
  percentage of pericyte coverage: increased significantly
Aβ oligomers; 3×Tg-AD mice aged 9 months, ghrelin vs vehicle, ELISA and immunoblot, vessels-depleted hippocampus and cortex, P<0.05
  level of Aβ oligomers: significantly lower level
Aβ oligomers; 9 months 3×Tg mice, ghrelin 600 μg/kg per day, every 2 days for 2 weeks S.C. vs saline, 6E10 and A11 antibodies
  Aβ levels (both APP and Aβ oligomers): significantly lower
RAGE
  decline of relative expression of RAGE in isolated capillaries: ~10%
miR-145
  expression level of capillary miR-145 from hippocampus and cerebral cortex: significant increase
[2]
  expression levels of all 5 capillary miRNAs in hippocampus and cerebral cortex: significant increase
